The source made the active and inactive calls.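 How the source made its calls: active means cell-killing curve crosses a set limit at a concentration no more than twice the top valid dose; inconclusive means flat curve with a 30 to 70% loss, or a poor fit; inactive means signal rising instead of falling, and the rest.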
Assay: TC71 Ewing sarcoma cell killing, confirmation, luminescence, cherry-picked samples, retest (AID 720570)
Conditions: TC71 Ewing sarcoma viability, CellTiter-Glo ATP, 72 h; at 26 µM (top of the series)

| SMILES | activity change, negative = cytotoxicity |
| --- | --- |
| C=C1C(=O)C=C[C@]2(C)C[C@@H]3OC(=O)[C@](C)(O)[C@H]3C[C@@H]12 | -94.2% (inactive) |
| COC(=O)C[C@H]1C=C[C@@H](NC(=O)Nc2ccc(C(F)(F)F)cc2)[C@H](CO)O1 | 9.61% (inactive) |
| COc1ccc(C(=O)CN2C(=O)c3ccccc3S2(=O)=O)cc1 | 19.9% (inactive) |
| COC(=O)c1cccc(NC(=O)NC(=O)c2ccccc2Cl)c1 | 7.25% (inactive) |
| Nc1ccc(-c2cc3ccccc3oc2=O)cc1 | -3.32% (inactive) |
| Cc1cc(C(=O)NNC(=O)c2ccc(S(=O)(=O)N(C)C)cc2)c(C)o1 | 17.6% (inactive) |
| COC(=O)C[C@@H]1CC[C@@H]2[C@@H](COc3ccc(NC(=O)Nc4cccc(F)c4)cc3C(=O)N2C)O1 | 5.61% (inactive) |
| Cc1cc2sc3ccc(C#CC4(O)CCCCC4)cc3c(=O)c2cc1C | 23.5% (inactive) |
| COc1ccc(S(=O)(=O)Nc2ccc3c(c2)C(=O)N([C@H](C)CO)C[C@@H](C)[C@@H](CN(C)CC2CCCCC2)OCCCC[C@H](C)O3)cc1 | -1.56% (inactive) |
| COC(=O)Cc1[nH]n(-c2nc3ccccc3s2)c(=O)c1C(C)=Nc1ccc(C)cc1 | -7.01% (inactive) |
| Cc1ccc(Cl)cc1NC(=O)Cn1cc(C(F)(F)F)cc(Cl)c1=O | 2.53% (inactive) |
| Cc1cccc(/C=N/Nc2ccc3ccccc3n2)c1 | -16.4% (inactive) |
| Cc1ccc(NC(=O)CCN2CCCCC2)cc1 | 3.68% (inactive) |
| CCN1CCN(/C=N/c2nc3c(s2)CCCC3)CC1 | -11.1% (inactive) |
| Cc1ccsc1/C=N/Nc1cccc(C(=O)O)c1 | -2.07% (inactive) |
| COc1ccc(C(=O)OCC(=O)Nc2ccc(Cl)c(C(F)(F)F)c2)c(OC)c1OC | 3.2% (inactive) |
| Cc1ccc2c(c1)C(=O)N1[C@H]3c4cc(Br)ccc4OC[C@@H]3[C@H](c3ccccc3)[C@]1(C)C(=O)N2 | -5.71% (inactive) |
| CC1=NN(c2ccccc2)C(=O)/C1=C\C=C\c1ccccc1 | 22.9% (inactive) |
| CC(=O)c1ccc(NC(=O)c2noc3c2CCC3)cc1 | -19.5% (inactive) |
| COc1ccc2oc(-c3ccccc3)cc(=O)c2c1 | 1.87% (inactive) |

| SMILES | activity change, negative = cytotoxicity |
| --- | --- |
| CC1(CCc2ccccc2)NC(=O)N(CC(=O)N2CC(=O)Nc3ccccc32)C1=O (stereo not given) | 3.37% (inactive) |
| COc1ccc(N=C(NN)c2ccc3ccccc3n2)cc1 | 4.27% (inactive) |
| COc1ccc2oc(C(=O)NCCc3ccccc3)c(C)c2c1 | 3.92% (inactive) |
| O=C(Nc1cccc(Oc2ccc3c(c2)C(=O)NC3=O)c1)c1cccs1 | 9.53% (inactive) |
| O=C1c2ccc3c4c(ccc(c24)C(=O)N1c1cccc(O)c1)C(=O)N(c1cccc(O)c1)C3=O | -1.18% (inactive) |
| O=C(CCCCl)Nc1nc(-c2ccc3c(c2)OCCO3)cs1 | 3.63% (inactive) |
| O=C(CNC(=O)Cc1ccccc1)N=Nc1c(O)n(Cc2ccc3c(c2)OCO3)c2ccccc12 | 8.54% (inactive) |
| CN(C)C(=S)N=Nc1[nH]c2ccccc2c1O | 16.9% (inactive) |
| COc1cc(/C=N/NC(=O)c2csc3c2CCCC3)cc(OC)c1O | -7.47% (inactive) |
| CCCn1c(C)cc(C(=O)CN2C(=O)c3ccccc3S2(=O)=O)c1C | 5.44% (inactive) |
| C[C@@H]1CCCCO[C@@H](CN(C)C(=O)Cc2ccccc2)[C@@H](C)CN([C@@H](C)CO)C(=O)c2cc(NS(=O)(=O)c3ccc(F)cc3)ccc2O1 | -0.12% (inactive) |
| Nc1ccc2oc(-c3cc(Br)ccc3Cl)nc2c1 | -14.7% (inactive) |
| COC(=O)C[C@@H]1CC[C@@H]2[C@H](COc3ccc(NC(=O)c4ccccc4)cc3C(=O)N2C)O1 | 7.67% (inactive) |
| C=C(C(=O)c1ccccc1)C(C(=C)C(=O)c1ccccc1)c1ccc(OC)cc1 | 10.8% (inactive) |
| CCOc1cc(N2CCC(O)CC2)ccc1Nc1ncc2c(n1)N(C)c1ccccc1C(=O)N2C | -28.3% (inactive) |
| C[C@H](CO)N1C[C@H](C)[C@H](CN(C)Cc2ccc(C(F)(F)F)cc2)Oc2c(NS(=O)(=O)c3ccc(Cl)cc3)cccc2C1=O | 46.6% (inactive) |
| COC(=O)Cc1ccc(NC(=O)c2ccccc2Cl)cc1 | -1.96% (inactive) |
| CC(C)c1ccc(OCc2cccc(C(=O)N/N=C/c3cccnc3)c2)cc1 | 0.747% (inactive) |
| COC(=O)C[C@@H]1CC[C@@H]2[C@H](COc3ccc(NC(=O)c4ccc(F)c(F)c4)cc3C(=O)N2C)O1 | 9.2% (inactive) |
| COC(=O)C[C@H]1CC[C@H]2[C@@H](COc3ccc(NC(=O)Nc4cccc(Cl)c4)cc3C(=O)N2C)O1 | -10.7% (inactive) |
